Laboratory results: patent US8415469B2, “Compounds and methods for kinase modulation, and indications therefor” (Plexxikon Inc., priority 2005, dated 2013)
One block for each molecule: values may come before it.

What was measured:
Format in all cases: biochemical
[1] = target: T1, Stk6 (Homo sapiens, UniProt O14965); test: Z'-Lyte FRET kinase assay (Invitrogen), Stk6; details: read-out: IC50, activity toward kinase Stk6
T1 construct: purchased Invitrogen (Carlsbad, Calif.), screening service
T1 sequence (O14965 1-403): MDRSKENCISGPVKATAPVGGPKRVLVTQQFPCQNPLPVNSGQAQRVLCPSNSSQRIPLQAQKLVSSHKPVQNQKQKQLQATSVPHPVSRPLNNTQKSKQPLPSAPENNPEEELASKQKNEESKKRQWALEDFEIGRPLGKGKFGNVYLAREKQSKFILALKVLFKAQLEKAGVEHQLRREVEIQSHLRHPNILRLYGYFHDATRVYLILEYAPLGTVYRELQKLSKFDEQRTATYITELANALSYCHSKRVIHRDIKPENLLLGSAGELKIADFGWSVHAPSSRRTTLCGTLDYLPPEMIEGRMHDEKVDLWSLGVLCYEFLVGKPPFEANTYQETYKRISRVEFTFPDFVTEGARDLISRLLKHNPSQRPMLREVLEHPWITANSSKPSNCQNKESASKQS

[2] = target: Plk1 (Homo sapiens, UniProt P53350); test: AlphaScreen kinase assay, Plk1; details: read-out: IC50, activity toward kinase Plk1
Chain of Plk1 (P53350 whole entry): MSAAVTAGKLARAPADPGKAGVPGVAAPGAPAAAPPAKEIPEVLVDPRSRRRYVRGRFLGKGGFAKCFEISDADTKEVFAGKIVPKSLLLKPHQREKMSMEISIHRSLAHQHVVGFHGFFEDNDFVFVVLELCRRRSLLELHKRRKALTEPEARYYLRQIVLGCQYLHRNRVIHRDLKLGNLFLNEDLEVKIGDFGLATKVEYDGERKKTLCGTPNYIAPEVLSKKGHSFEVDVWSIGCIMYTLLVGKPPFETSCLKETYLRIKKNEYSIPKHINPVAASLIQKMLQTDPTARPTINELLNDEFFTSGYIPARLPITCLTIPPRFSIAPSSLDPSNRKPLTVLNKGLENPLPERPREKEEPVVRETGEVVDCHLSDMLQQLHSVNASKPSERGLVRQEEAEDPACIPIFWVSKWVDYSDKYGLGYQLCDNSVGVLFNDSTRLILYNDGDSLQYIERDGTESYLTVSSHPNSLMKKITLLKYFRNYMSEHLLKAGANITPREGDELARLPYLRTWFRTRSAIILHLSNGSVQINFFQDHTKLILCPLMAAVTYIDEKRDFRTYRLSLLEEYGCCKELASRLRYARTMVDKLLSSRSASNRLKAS
Excerpt: (§1) AlphaScreen assay was used to screen additional kinases. The assay is similarly dependent on the phosphorylation of a peptide substrate. In this assay, an antibody that recognizes phosphorylated substrate is bound to an acceptor bead. The peptide substrate is attached to biotin, which binds to a donor head that contains streptavidin. Thus phosphorylated substrate is bound by antibody and streptavidin, bringing the donor and acceptor heads into close proximity when kinase is not inhibited. The donor produces singlet oxygen which results in emission from the acceptor when they are in close proximity. Conversely, when kinase is inhibited, the donor and acceptor beads are not associated and the emission from the acceptor is reduced.
(§2) AlphaScreen assays were done using compounds dissolved in DMSO to a concentration of 20 mM. The compounds were diluted accordingly to the desired final concentrations in each sample well, using 1:3 serial dilution for a total of 8 concentration points.

[3] = target: T2, B-Raf V600E (Homo sapiens, UniProt P15056, V600E); test: AlphaScreen kinase assay, B-Raf V600E; details: read-out: IC50, activity toward kinase B-Raf V600E
T2 construct: P4254. pFastBacBD-CDC37 BRAF D437-K722-X, V600E; His6 with pFastBac HT leader (TEV site) (N); made in house; host or cells: Sf9 (baculovirus; chaperone CDC37 co-expressed)
T2 sequence (P15056 with tags, fused parts or gaps V600E): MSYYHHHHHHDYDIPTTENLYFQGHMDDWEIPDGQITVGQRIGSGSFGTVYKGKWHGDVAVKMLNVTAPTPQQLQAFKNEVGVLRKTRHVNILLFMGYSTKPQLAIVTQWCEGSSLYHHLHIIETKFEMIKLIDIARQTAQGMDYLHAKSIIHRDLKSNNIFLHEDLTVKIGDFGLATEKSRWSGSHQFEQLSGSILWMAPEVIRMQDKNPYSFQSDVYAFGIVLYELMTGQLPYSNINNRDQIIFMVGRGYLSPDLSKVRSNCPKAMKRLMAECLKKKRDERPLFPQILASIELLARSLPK

[4] = target: T3, Fms (Homo sapiens, UniProt P07333); test: AlphaScreen kinase assay, Fms; details: read-out: IC50, activity toward kinase Fms
T3 construct: purchased Upstate Biotechnology

[5] = target: T4, c-Raf-1 (Homo sapiens, UniProt P04049); test: AlphaScreen kinase assay, c-Raf-1; details: read-out: IC50, activity toward kinase c-Raf-1
T4 construct: purchased Upstate Biotechnology

[6] = target: T5, Kit (Homo sapiens, UniProt P10721); test: AlphaScreen kinase assay, Kit; details: read-out: IC50, activity toward kinase Kit
T5 construct: P1332.N6 BI PTP KIT M552-K948-X COD; His6 (N); made in house; host or cells: E. coli (PTP1B co-expressed)
T5 sequence (P10721 with tags, fused parts or gaps): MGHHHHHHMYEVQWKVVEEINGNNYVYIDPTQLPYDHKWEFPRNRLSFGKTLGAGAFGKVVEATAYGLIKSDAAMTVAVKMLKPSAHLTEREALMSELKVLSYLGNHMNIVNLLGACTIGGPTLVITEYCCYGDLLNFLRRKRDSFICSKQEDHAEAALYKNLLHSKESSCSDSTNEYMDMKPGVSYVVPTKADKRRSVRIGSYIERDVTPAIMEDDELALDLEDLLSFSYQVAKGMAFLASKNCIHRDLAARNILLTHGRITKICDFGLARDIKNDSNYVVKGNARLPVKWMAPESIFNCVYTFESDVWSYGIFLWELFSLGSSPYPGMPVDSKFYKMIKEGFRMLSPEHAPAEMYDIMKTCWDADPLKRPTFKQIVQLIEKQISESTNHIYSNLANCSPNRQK

[7] = target: T6, Itk (Homo sapiens, UniProt Q08881); test: AlphaScreen kinase assay, Itk; details: read-out: IC50, activity toward kinase Itk
T6 sequence (Q08881 1-620): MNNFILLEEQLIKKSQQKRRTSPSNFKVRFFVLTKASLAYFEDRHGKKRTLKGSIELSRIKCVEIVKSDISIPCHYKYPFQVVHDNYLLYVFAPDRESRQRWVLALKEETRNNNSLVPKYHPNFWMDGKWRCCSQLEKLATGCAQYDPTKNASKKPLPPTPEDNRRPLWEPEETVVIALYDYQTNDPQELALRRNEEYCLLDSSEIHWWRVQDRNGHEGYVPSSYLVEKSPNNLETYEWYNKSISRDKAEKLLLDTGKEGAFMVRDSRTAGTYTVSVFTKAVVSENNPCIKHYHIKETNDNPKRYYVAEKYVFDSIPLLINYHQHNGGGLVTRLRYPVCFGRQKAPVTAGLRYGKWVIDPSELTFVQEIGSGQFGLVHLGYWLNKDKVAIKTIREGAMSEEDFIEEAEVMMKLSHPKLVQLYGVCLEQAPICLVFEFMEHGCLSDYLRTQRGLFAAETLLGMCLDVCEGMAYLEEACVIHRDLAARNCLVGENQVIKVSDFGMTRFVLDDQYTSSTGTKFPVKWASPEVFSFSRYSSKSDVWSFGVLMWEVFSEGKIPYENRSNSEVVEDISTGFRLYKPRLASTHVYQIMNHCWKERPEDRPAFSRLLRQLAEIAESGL
Excerpt: as §1, §2

[8] = target: T7, Ret (Homo sapiens, UniProt P07949); test: AlphaScreen kinase assay, Ret; details: read-out: IC50, activity toward kinase Ret
T7 construct: P1378.pET-SF BI-PTP RET H661-R1012 HIS; made in house
T7 sequence (P07949 with tags, fused parts or gaps): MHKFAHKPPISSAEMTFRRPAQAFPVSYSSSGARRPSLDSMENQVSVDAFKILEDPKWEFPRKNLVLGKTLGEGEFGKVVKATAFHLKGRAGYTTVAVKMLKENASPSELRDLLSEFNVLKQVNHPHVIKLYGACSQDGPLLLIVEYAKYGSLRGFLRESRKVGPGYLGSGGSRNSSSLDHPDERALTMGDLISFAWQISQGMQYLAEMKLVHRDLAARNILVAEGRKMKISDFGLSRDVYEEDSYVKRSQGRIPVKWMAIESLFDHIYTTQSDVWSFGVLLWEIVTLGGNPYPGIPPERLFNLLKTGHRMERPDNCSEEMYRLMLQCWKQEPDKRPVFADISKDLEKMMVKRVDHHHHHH

[9] = target: T8, Jnk3 (Homo sapiens, UniProt P53779); test: AlphaScreen kinase assay, Jnk3; details: read-out: IC50, activity toward kinase Jnk3
T8 construct: purchased Upstate Biotechnology
T8 sequence (P53779 whole entry): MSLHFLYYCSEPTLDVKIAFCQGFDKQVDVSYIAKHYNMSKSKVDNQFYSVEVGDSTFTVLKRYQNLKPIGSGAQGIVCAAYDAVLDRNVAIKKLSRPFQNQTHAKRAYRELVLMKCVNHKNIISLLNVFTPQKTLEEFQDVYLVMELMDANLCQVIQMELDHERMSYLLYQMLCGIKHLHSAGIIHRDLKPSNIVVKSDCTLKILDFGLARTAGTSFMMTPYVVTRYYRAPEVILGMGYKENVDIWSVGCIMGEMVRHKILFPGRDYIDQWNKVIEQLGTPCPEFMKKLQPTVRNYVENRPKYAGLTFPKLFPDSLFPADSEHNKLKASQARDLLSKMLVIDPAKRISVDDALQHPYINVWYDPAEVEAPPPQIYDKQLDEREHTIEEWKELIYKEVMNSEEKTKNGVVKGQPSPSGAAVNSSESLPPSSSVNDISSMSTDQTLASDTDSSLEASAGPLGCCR

[10] = target: T9, Met (Homo sapiens, UniProt P08581); test: AlphaScreen kinase assay, Met; details: read-out: IC50, activity toward kinase Met
T9 construct: P1818.pETN6 BI-PTP MET G1056-G1364-X WT; His6 (N); made in house; host or cells: E. coli (PTP1B co-expressed)
T9 sequence (P08581 with tags, fused parts or gaps): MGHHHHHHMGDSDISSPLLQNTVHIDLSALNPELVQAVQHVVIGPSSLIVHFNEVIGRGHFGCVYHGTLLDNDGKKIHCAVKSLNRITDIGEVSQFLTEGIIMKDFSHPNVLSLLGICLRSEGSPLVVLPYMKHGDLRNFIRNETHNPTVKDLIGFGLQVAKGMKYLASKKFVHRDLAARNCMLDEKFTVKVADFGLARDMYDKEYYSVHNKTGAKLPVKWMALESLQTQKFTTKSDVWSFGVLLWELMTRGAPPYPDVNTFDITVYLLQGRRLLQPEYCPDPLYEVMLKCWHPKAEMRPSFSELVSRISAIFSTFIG
Outline: (§3)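 AlphaScreen read-out: acceptor-bead emission falls when kinase is inhibited. Biotin-peptide substrate captured on streptavidin donor beads, phospho-specific antibody on acceptor beads. 8 concentrations, 1:3 dilution series, from 20 mM DMSO stocks.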

[11] = target: T10, B-Raf (Homo sapiens, UniProt P15056); test: AlphaScreen kinase assay, B-Raf; details: read-out: IC50, activity toward kinase B-Raf
T10 construct: purchased Upstate Biotechnology
T10 sequence (P15056 whole entry): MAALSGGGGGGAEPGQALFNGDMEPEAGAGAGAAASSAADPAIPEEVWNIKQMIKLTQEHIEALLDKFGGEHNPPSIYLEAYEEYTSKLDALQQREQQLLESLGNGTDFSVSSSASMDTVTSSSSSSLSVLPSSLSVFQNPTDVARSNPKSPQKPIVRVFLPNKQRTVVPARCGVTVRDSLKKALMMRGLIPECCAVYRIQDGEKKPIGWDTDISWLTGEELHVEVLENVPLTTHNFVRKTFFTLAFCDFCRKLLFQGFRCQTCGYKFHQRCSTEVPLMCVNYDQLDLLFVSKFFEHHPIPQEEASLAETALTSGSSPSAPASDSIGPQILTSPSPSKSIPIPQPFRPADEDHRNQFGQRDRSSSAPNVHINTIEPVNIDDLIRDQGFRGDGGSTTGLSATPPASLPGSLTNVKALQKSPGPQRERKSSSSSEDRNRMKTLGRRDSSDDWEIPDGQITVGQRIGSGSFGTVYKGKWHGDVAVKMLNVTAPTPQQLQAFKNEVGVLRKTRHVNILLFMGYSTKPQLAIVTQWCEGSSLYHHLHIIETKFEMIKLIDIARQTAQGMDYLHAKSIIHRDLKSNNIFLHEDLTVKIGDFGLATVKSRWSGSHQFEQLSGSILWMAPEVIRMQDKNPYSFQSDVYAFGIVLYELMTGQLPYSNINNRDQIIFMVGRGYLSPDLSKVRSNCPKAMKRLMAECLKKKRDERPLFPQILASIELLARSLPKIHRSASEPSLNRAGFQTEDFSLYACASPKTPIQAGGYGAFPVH

[12] = target: T11, Btk (Homo sapiens, UniProt Q06187); test: Z'-Lyte FRET kinase assay (Invitrogen), Btk; details: read-out: IC50, activity toward kinase Btk
T11 construct: purchased Invitrogen (assay run by Invitrogen)

[13] = target: T12, Kdr (Homo sapiens, UniProt P35968); test: Z'-Lyte FRET kinase assay (Invitrogen), Kdr; details: read-out: IC50, activity toward kinase Kdr
T12 construct: purchased Invitrogen (assay run by Invitrogen)
T12 sequence (P35968 20-1356): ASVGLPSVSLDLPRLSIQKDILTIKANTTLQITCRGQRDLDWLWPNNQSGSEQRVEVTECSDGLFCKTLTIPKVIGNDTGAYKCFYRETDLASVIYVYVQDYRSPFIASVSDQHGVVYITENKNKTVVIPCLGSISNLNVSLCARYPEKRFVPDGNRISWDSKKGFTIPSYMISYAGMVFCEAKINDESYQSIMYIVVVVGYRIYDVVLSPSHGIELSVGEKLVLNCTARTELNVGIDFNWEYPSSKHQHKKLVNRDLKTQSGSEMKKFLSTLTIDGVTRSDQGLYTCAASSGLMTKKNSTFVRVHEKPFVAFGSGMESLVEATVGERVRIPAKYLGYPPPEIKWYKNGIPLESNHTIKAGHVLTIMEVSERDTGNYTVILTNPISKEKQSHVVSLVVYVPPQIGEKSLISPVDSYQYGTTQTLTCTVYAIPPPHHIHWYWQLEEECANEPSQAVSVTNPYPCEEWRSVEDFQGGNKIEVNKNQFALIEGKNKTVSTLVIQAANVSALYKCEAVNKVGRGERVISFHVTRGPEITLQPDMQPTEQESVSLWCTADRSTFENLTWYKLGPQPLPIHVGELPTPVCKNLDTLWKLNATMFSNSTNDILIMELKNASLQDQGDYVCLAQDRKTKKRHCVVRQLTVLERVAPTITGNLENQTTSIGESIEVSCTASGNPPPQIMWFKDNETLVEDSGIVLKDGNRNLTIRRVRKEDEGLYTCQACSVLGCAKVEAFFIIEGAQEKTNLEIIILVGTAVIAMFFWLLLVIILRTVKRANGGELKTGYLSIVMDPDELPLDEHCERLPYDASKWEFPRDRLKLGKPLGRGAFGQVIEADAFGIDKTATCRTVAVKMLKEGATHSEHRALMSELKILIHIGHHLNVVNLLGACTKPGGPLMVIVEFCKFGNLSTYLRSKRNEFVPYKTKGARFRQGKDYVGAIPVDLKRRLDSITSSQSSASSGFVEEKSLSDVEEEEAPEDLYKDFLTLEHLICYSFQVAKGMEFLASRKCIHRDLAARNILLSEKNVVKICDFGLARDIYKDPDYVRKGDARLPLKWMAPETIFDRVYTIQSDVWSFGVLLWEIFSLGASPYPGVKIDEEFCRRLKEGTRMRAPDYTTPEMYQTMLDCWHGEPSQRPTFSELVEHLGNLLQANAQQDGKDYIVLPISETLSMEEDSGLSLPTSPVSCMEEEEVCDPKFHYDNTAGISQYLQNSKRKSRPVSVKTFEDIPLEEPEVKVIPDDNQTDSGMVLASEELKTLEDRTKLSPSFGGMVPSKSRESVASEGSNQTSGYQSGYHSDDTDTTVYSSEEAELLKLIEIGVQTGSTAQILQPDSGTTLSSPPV

[14] = target: T13, Flt1 (Homo sapiens, UniProt P17948); test: AlphaScreen kinase assay, Flt1; details: read-out: IC50, activity toward kinase Flt1
T13 construct: P1826.pETN6 BI-PTP FLT1 M799-D1165-X WT; His6 (N); made in house; host or cells: E. coli (PTP1B co-expressed)
T13 sequence (P17948 with tags, fused parts or gaps): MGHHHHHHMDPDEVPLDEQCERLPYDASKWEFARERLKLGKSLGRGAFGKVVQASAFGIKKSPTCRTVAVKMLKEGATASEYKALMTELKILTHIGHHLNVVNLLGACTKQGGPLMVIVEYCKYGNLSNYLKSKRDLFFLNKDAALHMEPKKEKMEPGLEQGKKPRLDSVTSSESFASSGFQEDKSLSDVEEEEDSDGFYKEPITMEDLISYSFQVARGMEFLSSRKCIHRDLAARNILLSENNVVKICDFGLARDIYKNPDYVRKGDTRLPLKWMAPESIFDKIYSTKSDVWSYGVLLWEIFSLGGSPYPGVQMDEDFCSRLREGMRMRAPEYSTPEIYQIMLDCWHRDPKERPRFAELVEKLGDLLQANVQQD

[15] = target: Akt3 (Homo sapiens, UniProt Q9Y243); test: AlphaScreen kinase assay, Akt3; details: read-out: IC50, activity toward kinase Akt3
Outline: as §3

[16] = target: T14, Fak (Homo sapiens, UniProt Q05397); test: AlphaScreen kinase assay, Fak; details: read-out: IC50, activity toward kinase Fak
T14 construct: P1358.pFastBacHtb FAK S411-Q686-X; His6 with pFastBacHTb leader (TEV site) (N); made in house; host or cells: Sf9 (baculovirus)

[17] = target: T15, FGFR1 (Homo sapiens, UniProt P11362, C488A/C584S); test: AlphaScreen kinase assay, FGFR1; details: read-out: IC50, activity toward kinase FGFR
T15 construct: P1351.pET N6 BI-PTP FGFR A458-E765-X C488A, C584S; made in house; host or cells: E. coli (PTP1B co-expressed)
T15 sequence (P11362 458-765 C488A/C584S): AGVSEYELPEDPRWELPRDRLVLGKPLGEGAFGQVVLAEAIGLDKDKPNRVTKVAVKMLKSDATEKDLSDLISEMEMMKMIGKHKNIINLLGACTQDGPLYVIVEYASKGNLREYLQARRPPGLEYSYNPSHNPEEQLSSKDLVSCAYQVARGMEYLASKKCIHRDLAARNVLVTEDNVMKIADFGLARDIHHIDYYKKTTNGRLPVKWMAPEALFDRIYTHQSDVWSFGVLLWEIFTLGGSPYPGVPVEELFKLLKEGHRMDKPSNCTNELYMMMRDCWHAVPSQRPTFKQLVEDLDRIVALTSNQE

[18] = target: T16, Jnk1 (Homo sapiens, UniProt P45983); test: AlphaScreen kinase assay, Jnk1; details: read-out: IC50, activity toward kinase Jnk1
T16 construct: purchased Upstate Biotechnology
T16 sequence (P45983 whole entry): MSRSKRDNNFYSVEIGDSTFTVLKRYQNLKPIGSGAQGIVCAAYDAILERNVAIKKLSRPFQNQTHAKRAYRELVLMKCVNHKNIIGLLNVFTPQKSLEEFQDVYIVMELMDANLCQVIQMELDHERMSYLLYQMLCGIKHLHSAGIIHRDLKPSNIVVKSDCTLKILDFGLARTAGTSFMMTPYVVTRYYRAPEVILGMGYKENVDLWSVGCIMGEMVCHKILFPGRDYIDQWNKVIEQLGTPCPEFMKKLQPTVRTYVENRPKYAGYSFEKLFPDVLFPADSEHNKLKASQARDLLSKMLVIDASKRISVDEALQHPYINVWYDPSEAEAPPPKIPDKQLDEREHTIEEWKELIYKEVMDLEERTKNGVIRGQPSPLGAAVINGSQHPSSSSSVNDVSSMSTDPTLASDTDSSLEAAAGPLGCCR

[19] = target: T17, Abl (Homo sapiens, UniProt P00519); test: AlphaScreen kinase assay, Abl; details: read-out: activity toward kinase Abl, IC50
T17 construct: P1121. pET-SPEC BI-PTP Abl G227-V515-X; His6 (N); made in house; host or cells: E. coli (PTP1B co-expressed)
T17 sequence (P00519 with tags, fused parts or gaps): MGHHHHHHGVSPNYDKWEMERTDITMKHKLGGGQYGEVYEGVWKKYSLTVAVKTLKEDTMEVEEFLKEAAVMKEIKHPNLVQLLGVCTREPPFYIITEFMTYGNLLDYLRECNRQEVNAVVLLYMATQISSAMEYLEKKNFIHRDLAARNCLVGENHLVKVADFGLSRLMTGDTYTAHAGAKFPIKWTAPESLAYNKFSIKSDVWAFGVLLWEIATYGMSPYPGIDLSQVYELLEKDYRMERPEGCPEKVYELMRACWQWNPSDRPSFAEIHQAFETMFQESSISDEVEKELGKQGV
Outline: as §3

[20] = target: T18, Flt4 (Homo sapiens, UniProt P35916); test: AlphaScreen kinase assay, Flt4; details: read-out: IC50, activity toward kinase Flt4
T18 construct: purchased ProQinase GmbH (Freiburg, Germany)
Outline: as §3

[21] = target: T19, Jnk2 (Homo sapiens, UniProt P45984); test: AlphaScreen kinase assay, Jnk2; details: read-out: IC50, activity toward kinase Jnk2
T19 construct: purchased Roche Protein Expression Group (Indianapolis, IN)
Outline: as §3

- IC50 [1]: ≤ 10 µM
- IC50 [2]: ≤ 10 µM
Compound: O=S(=O)(NCc1ccnc2[nH]ccc12)c1ccc(F)c(F)c1 [Compound P-0345]

- IC50 [2]: ≤ 10 µM
Compound: O=[N+]([O-])c1cccc(S(=O)(=O)NCc2ccnc3[nH]ccc23)c1 [Compound P-0480]

- IC50 [3]: ≤ 10 µM
- IC50 [2]: ≤ 10 µM
Compound: O=S(=O)(Cc1cccc(Cl)c1)NCc1c[nH]c2ncccc12 [Compound P-1138]

- IC50 [4]: ≤ 10 µM
- IC50 [5]: ≤ 10 µM
- IC50 [6]: ≤ 10 µM
- IC50 [7]: ≤ 10 µM
- IC50 [8]: ≤ 10 µM
- IC50 [3]: ≤ 10 µM
- IC50 [9]: ≤ 10 µM
- IC50 [10]: ≤ 10 µM
- IC50 [11]: ≤ 10 µM
Compound: Oc1cccc(Cc2c[nH]c3ncc(-c4cccnc4)cc23)c1F [Compound P-0778, 2-Fluoro-3-(5-pyridin-3-yl-1H-pyrrolo[2,3-b]pyridin-3-ylmethyl)-phenol]

- IC50 [12]: ≤ 10 µM
- IC50 [13]: ≤ 10 µM
- IC50 [8]: ≤ 10 µM
- IC50 [2]: ≤ 10 µM
Compound: O=C(c1ccc(Cl)cc1)c1c[nH]c2nccc(-c3cccnc3)c12 [Compound P-0113]

- IC50 [2]: ≤ 10 µM
Compound: O=S(=O)(Cc1ccccc1)NCc1c[nH]c2ncccc12 [Compound P-0581]

- IC50 [13]: ≤ 10 µM
- IC50 [6]: ≤ 10 µM
- IC50 [7]: ≤ 10 µM
- IC50 [3]: ≤ 10 µM
- IC50 [9]: ≤ 10 µM
- IC50 [10]: ≤ 10 µM
- IC50 [14]: ≤ 10 µM
- IC50 [15]: ≤ 10 µM
- IC50 [16]: ≤ 10 µM
- IC50 [17]: ≤ 10 µM
Compound: CCN(CC)c1ccc(Nc2cnc3[nH]ccc3c2)cc1 [Compound P-0951]

- IC50 [2]: ≤ 10 µM
Compound: O=[N+]([O-])c1ccc(S(=O)(=O)NCc2ccnc3[nH]ccc23)cc1 [Compound P-0366]

- IC50 [2]: ≤ 10 µM
Compound: O=C(O)CCc1c[nH]c2ncccc12 [Compound P-0490]

- IC50 [8]: ≤ 10 µM
- IC50 [2]: ≤ 10 µM
Compound: Clc1ccc(Cc2c[nH]c3nccc(-c4ccccc4)c23)cn1 [Compound P-0286]

- IC50 [18]: ≤ 10 µM
- IC50 [13]: ≤ 10 µM
- IC50 [19]: ≤ 10 µM
- IC50 [20]: ≤ 10 µM
- IC50 [6]: ≤ 10 µM
- IC50 [7]: ≤ 10 µM
- IC50 [21]: ≤ 10 µM
- IC50 [8]: ≤ 10 µM
- IC50 [3]: ≤ 10 µM
- IC50 [9]: ≤ 10 µM
- IC50 [14]: ≤ 10 µM
- IC50 [11]: ≤ 10 µM
- IC50 [17]: ≤ 10 µM
Compound: COc1cccc(C(=O)c2c[nH]c3ncc(-c4cccc(N)c4)cc23)c1 [Compound P-0579]

- IC50 [2]: ≤ 10 µM
Compound: Cc1cc(C(=O)c2c[nH]c3nccc(-c4cccc(N)c4)c23)n(C)n1 [Compound P-0332]
